{
  "source": "paper PMC7782499",
  "about": "“Progerinin, an optimized progerin-lamin A binding inhibitor, ameliorates premature senescence phenotypes of Hutchinson-Gilford progeria syndrome” (Communications Biology, 2021)",
  "key": {"HGPS cells": {"system": "HGPS cells", "assay": "Ki67-positive cells in HGPS cells", "assay_type": "cell-based, human", "settings": "for Ki67 positive cells/total cells: AG03199; for Ki67 positive cells/total cells (ratio): AG11498, 3 days", "protocol": "A. In vivo pharmacokinetic (PK) analysis of JH010 (performed in rats). […] B Effect of SLC-D011 on human ERG (hERG). […] C In vivo pharmacokinetic analysis of SLD-D011. […] HEK293 cells transiently transfected with GFP-PG vectors were treated with SLC-D011 for 24 hr (n = 3 independent experiment; two-tailed Student’s t test). […] “Con” means dimethyl sulfoxide (DMSO)-treated control.\nCells were cultured on coverslips, washed with PBS, fixed with 4% paraformaldehyde (PFA) for 30 min at RT, and then permeabilized with 0.2% Triton X-100 at RT for 5 min. After treatment with blocking solution (anti-Human antibody diluted 1:400 in PBS) for 1 h, cells were incubated with anti-lamin A/C (1:400), anti-progerin (1:100), Ki67 (1:200), and anti-H3K9me3 (1:200) in blocking buffer overnight at 4 °C. Finally, cells were incubated with fluorescein isothiocyanate and rhodamine-conjugated secondary antibodies at 4 °C for 7 h. Nuclei were stained with DAPI (4, 6-diamidino-2-phenylindole) at RT for 10 min. After cells were washed three times with PBS, coverslips were mounted with mounting solution (H-5501; Vector Laboratories, Burlingame, CA, USA). Immunofluorescence signal was detected with a fluorescence microscopy (Zeiss and Logos).\nHGPS cells were treated with SLC-D011 at a low concentration ( from 10\nnM to 5μM) for 3 days. C. […]\n[…] DAPI indicated DNA."}, "[1]": {"assay": "Pharmacokinetic analysis of SLC-D011 dissolved in monoolein-based solution, oral", "assay_type": "in vivo", "parameters": "unit not given here", "protocol": "Fig. S9. In vitro ADME results of SLC-D011 via oral administration. A. Formulation for complete dissolution. Due to its extremely hydrophobic property, SLC-D011 was not dissolved in water solution (left). To overcome this problem, several edible solutions were tested and monoolein- based solution was selected as a dissolving solution (right). B. SLC-D011 was very stable in solution. For complete dissolution, heating at 80℃ and sonication step were required. However, SLC -D011 was not broken despite of heating […]\nand sonication. […] C and D.\nPharmacokinetic analysis of SLC -D011dissolved in monoolein- based solution."}},
  "note": "Where “and” joins values, the source holds several entries; their conditions need not be identical. Equal entries are not always repeated.",
  "data": [
    {"smiles": "CC1(C)Oc2cc3oc(=O)ccc3cc2C[C@@H]1OC/C=C/c1ccccc1", "note": "[SLC-D011]", "values": [
      {"measurement": "Ki67 positive cells/total cells", "setting": "HGPS cells; 10nM, Ave", "value": 0.1497, "unit": "ratio"},
      {"measurement": "Ki67 positive cells/total cells", "setting": "HGPS cells; 10nM, individual replicate", "value": "0.0625 ratio and 0.2083 ratio and 0.1538 ratio and 0.1646 ratio and 0.1594 ratio"},
      {"measurement": "Ki67 positive cells/total cells", "setting": "HGPS cells; 50nM, Ave", "value": 0.369, "unit": "ratio"},
      {"measurement": "Ki67 positive cells/total cells", "setting": "HGPS cells; 50nM, individual replicate", "value": "0.2857 ratio and 0.375 ratio and 0.4444 ratio and 0.5 ratio and 0.24 ratio"},
      {"measurement": "Ki67 positive cells/total cells", "setting": "HGPS cells; 100nM, Ave", "value": 0.418, "unit": "ratio"},
      {"measurement": "Ki67 positive cells/total cells", "setting": "HGPS cells; 100nM, individual replicate", "value": "0.275 ratio and 0.3214 ratio and 0.4286 ratio and 0.44 ratio and 0.625 ratio"},
      {"measurement": "Ki67 positive cells/total cells", "setting": "HGPS cells; 500nM, Ave", "value": 0.45, "unit": "ratio"},
      {"measurement": "Ki67 positive cells/total cells", "setting": "HGPS cells; 500nM, individual replicate", "value": "0.3889 ratio and 0.5 ratio and 0.5714 ratio and 0.3684 ratio and 0.4211 ratio"},
      {"measurement": "Ki67 positive cells/total cells", "setting": "HGPS cells; 1μM, Ave", "value": 0.4556, "unit": "ratio"},
      {"measurement": "Ki67 positive cells/total cells", "setting": "HGPS cells; 1μM, individual replicate", "value": "0.4146 ratio and 0.4286 ratio and 0.5 ratio and 0.4792 ratio"},
      {"measurement": "Ki67 positive cells/total cells", "setting": "HGPS cells; 2μM, Ave", "value": 0.479, "unit": "ratio"},
      {"measurement": "Ki67 positive cells/total cells", "setting": "HGPS cells; 2μM, individual replicate", "value": "0.5 ratio (2×) and 0.44 ratio and 0.4762 ratio"},
      {"measurement": "Ki67 positive cells/total cells", "setting": "HGPS cells; 5μM, Ave", "value": 0.4663, "unit": "ratio"},
      {"measurement": "Ki67 positive cells/total cells", "setting": "HGPS cells; 5μM, individual replicate", "value": "0.3571 ratio and 0.2857 ratio and 0.75 ratio and 0.5909 ratio and 0.3478 ratio"},
      {"measurement": "Ki67 positive cells/total cells (ratio)", "setting": "HGPS cells; 10nM", "value": "0.25 and 0.2222 and 0.2143 and 0.3"},
      {"measurement": "Ki67 positive cells/total cells (ratio)", "setting": "HGPS cells; 10nM, mean", "value": 0.2466},
      {"measurement": "Ki67 positive cells/total cells (ratio)", "setting": "HGPS cells; 50nM", "value": "0.2857 and 0.3333 and 0.375 and 0.2"},
      {"measurement": "Ki67 positive cells/total cells (ratio)", "setting": "HGPS cells; 50nM, mean", "value": 0.2985},
      {"measurement": "Ki67 positive cells/total cells (ratio)", "setting": "HGPS cells; 100nM", "value": "0.3333 and 0.3125 and 0.4 and 0.375"},
      {"measurement": "Ki67 positive cells/total cells (ratio)", "setting": "HGPS cells; 100nM, mean", "value": 0.3552},
      {"measurement": "Ki67 positive cells/total cells (ratio)", "setting": "HGPS cells; 500nM", "value": "0.375 and 0.4444 and 0.4286"},
      {"measurement": "Ki67 positive cells/total cells (ratio)", "setting": "HGPS cells; 500nM, mean", "value": 0.4058},
      {"measurement": "Ki67 positive cells/total cells (ratio)", "setting": "HGPS cells; 1μM", "value": "0.3333 and 0.4 and 0.6 and 0.375"},
      {"measurement": "Ki67 positive cells/total cells (ratio)", "setting": "HGPS cells; 1μM, mean", "value": 0.4271},
      {"measurement": "Ki67 positive cells/total cells (ratio)", "setting": "HGPS cells; 2μM", "value": "0.4 and 0.375 and 0.4167"},
      {"measurement": "Ki67 positive cells/total cells (ratio)", "setting": "HGPS cells; 2μM, mean", "value": 0.3979},
      {"measurement": "Concentration enough for inducing Ki67 expression", "setting": "HGPS cells; HGPS cells", "value": 100, "unit": "nM"},
      {"measurement": "Plasma concentration, Mean", "setting": "[1]; oral 10mg/kg (n=3), 0.25 hr", "value": 41},
      {"measurement": "Plasma concentration, Mean", "setting": "[1]; oral 10mg/kg (n=3), 0.5 hr", "value": 71},
      {"measurement": "Plasma concentration, Mean", "setting": "[1]; oral 10mg/kg (n=3), 1 hr", "value": 124.8},
      {"measurement": "Plasma concentration, Mean", "setting": "[1]; oral 10mg/kg (n=3), 2 hr", "value": 441.9},
      {"measurement": "Plasma concentration, Mean", "setting": "[1]; oral 10mg/kg (n=3), 4 hr", "value": 318.8},
      {"measurement": "Plasma concentration, Mean", "setting": "[1]; oral 10mg/kg (n=3), 8 hr", "value": 160.1},
      {"measurement": "Plasma concentration, Mean", "setting": "[1]; oral 10mg/kg (n=3), 24 hr", "value": 7.7},
      {"measurement": "Plasma concentration, Mean", "setting": "[1]; oral 20mg/kg (n=3), 0.25 hr", "value": 67.3},
      {"measurement": "Plasma concentration, Mean", "setting": "[1]; oral 20mg/kg (n=3), 0.5 hr", "value": 93.1},
      {"measurement": "Plasma concentration, Mean", "setting": "[1]; oral 20mg/kg (n=3), 1 hr", "value": 537.5},
      {"measurement": "Plasma concentration, Mean", "setting": "[1]; oral 20mg/kg (n=3), 2 hr", "value": 581.7},
      {"measurement": "Plasma concentration, Mean", "setting": "[1]; oral 20mg/kg (n=3), 4 hr", "value": 899.9},
      {"measurement": "Plasma concentration, Mean", "setting": "[1]; oral 20mg/kg (n=3), 8 hr", "value": 574},
      {"measurement": "Plasma concentration, Mean", "setting": "[1]; oral 20mg/kg (n=3), 24 hr", "value": 9.7}
    ]}
  ]
}
